Results on four compounds are retold here after US12161609B2, “Composition and method for treating autism spectrum disorder (ASD) symptoms of paranoia with self isolation and/or aggression” (priority 2021, dated 2024).

Data set [1] has as its system ASD aggression toward others or self and paranoia/social isolation. The note with it: for aggression and self-injury: Example 1: ASD person (when on the combination); for aggression and self-injury / paranoia/social isolation behavior: combination dosed twice daily as in TABLE 1; for loss of effectiveness (tachyphylaxis): after two years use.
In a further data set the test system is autistic patients. The note with it: oxcarbazepine alone vs. placebo, 2011 to 2021; cited from earlier work.

The structures appear in SMILES notation.

Take `O=C1CCc2ccc(OCCCCN3CCN(c4cccc(Cl)c4Cl)CC3)cc2N1` [aripiprazole]: in data set [1] (Example 1: ASD person), the “dyskinesia / tardive dyskinesia and dystonias” value is “developed tardive dyskinesia and dystonias”; the paranoia/social isolation behavior entry is given as “improvement in paranoia/social isolation behaviors”. In data set [1], the aggression and self-injury entry was “successful alleviation of aggression”. In addition, the “drug-induced hallucinations, aggression and paranoia” value in data set [1] (Example 1: within a half hour of taking the drug, after 1 and ½ years of use) was “induced hallucinations, severe aggression and paranoia”. Also, the “loss of effectiveness (tachyphylaxis)” value in data set [1] (summary over the ASD subjects) is reported as “tachyphylactic loss of effectiveness”. Also, the “tardive dyskinesia / dystonic side effects” value in data set [1] (summary over the ASD subjects, long-term use (two years for the antipsychotics)) is given as “developed tardive dyskinesia”.
Regarding `CNCCC(Oc1ccc(C(F)(F)F)cc1)c1ccccc1` (stereo not drawn) [fluoxetine], in data set [1] (Example 1: ASD person), the “ability to attend school” value is reported as “unable to attend schooling” and the paranoia/social isolation behavior result is listed as “remained paranoid”. The aggression and self-injury result in data set [1] is listed as “self-injury slightly decreased”.
As to `NC(=O)N1c2ccccc2CC(=O)c2ccccc21` [oxcarbazepine], the “adverse effects in autistic subjects” value with autistic patients is “so many adverse effects in autistic subjects that they drop out of the study”.
Turning to `Cc1nc2n(c(=O)c1CCN1CCC(c3noc4cc(F)ccc34)CC1)CCCC2` [risperidone], in data set [1] (Example 3: adult ASD, combination dosed early morning and after 5:00 pm), the “self-injury behavior, aggression toward others and social isolation symptoms” value was “could no longer be successfully treated”. The “loss of effectiveness (tachyphylaxis)” value in data set [1] (summary over the ASD subjects) is reported as “tachyphylactic loss of effectiveness”.
